Measurements from patent US9884825B2, “Curcumin analogs and methods of making and using thereof” (Georgia State University Research Foundation, Inc., priority 2012, dated 2018).

melting point [°C]	SMILES
178	CCN1C/C(=C\c2ccc(Br)cc2)C(=O)/C(=C/c2ccc(Br)cc2)C1 [6a, 3,5-Bis-(4-bromo-benzylidene)-1-ethyl-piperidin-4-one]
114	CCN1C/C(=C\c2ccc(F)cc2)C(=O)/C(=C/c2ccc(F)cc2)C1 [6c, 1-Ethyl-3,5-bis(4-fluorobenzylidene)piperidin-4-one]
178	CCc1ccc(/C=C2\CN(CC)C/C(=C\c3ccc(CC)cc3)C2=O)cc1 [6e, 1-Ethyl-3,5-bis(4-ethylbenzylidene)piperidin-4-one]
111	CCN1C/C(=C\c2ccc(C(C)(C)C)cc2)C(=O)/C(=C/c2ccc(C(C)(C)C)cc2)C1 [6i, 3,5-Bis(4-tert-butylbenzylidene)-1-ethylpiperidin-4-one]
106	C#CCN1CC(=Cc2ccc(C(C)C)cc2)C(=O)C(=Cc2ccc(C(C)C)cc2)C1 [10c, 3,5-Bis(4-isopropylbenzylidene)-1-(prop-2-ynyl)piperidin-4-one]
182	C#CCN1CC(=Cc2ccc(C(C)(C)C)cc2)C(=O)C(=Cc2ccc(C(C)(C)C)cc2)C1 [10d, 3,5-Bis(4-tert-butylbenzylidene)-1-(prop-2-ynyl)piperidin-4-one]
96	C#CCN1CC(=Cc2ccc(CCC)cc2)C(=O)C(=Cc2ccc(CCC)cc2)C1 [10e, 1-(Prop-2-ynyl)-3,5-bis(4-propylbenzylidene)piperidin-4-one]
165	CCCn1cc(CN2CC(=Cc3ccc(C)cc3)C(=O)C(=Cc3ccc(C)cc3)C2)nn1 [11a, 3,5-Bis(4-methylbenzylidene)-1-((1-propyl-1H-1,2,3-triazol-4-yl)methyl)piperidin-4-one]
169	CCCCCn1cc(CN2CC(=Cc3ccc(C)cc3)C(=O)C(=Cc3ccc(C)cc3)C2)nn1 [11c, 3,5-Bis(4-methylbenzylidene)-1-((1-pentyl-1H-1,2,3-triazol-4-yl)methyl)piperidin-4-one]
149	CCCn1cc(CN2CC(=Cc3ccc(CC)cc3)C(=O)C(=Cc3ccc(CC)cc3)C2)nn1 [12a, 3,5-Bis(4-ethylbenzylidene)-1-((1-propyl-1H-1,2,3-triazol-4-yl)methyl)piperidin-4-one]

Second part, the compound before the results:

SMILES	melting point [°C]
CCc1ccc(/C=C2\CN(S(=O)(=O)c3ccc(C)cc3)C/C(=C\c3ccc(CC)cc3)C2=O)cc1 [3b, 3,5-Bis(4-etbylbenzylidene)-1-tosylpiperidin-4-one]	165
CCCc1ccc(/C=C2\CN(S(=O)(=O)c3ccc(C)cc3)C/C(=C\c3ccc(CCC)cc3)C2=O)cc1 [3c, 3,5-Bis(4-propylbenzylidene)-1-tosylpiperidin-4-one]	157
Cc1ccc(/C=C2\CN(S(=O)(=O)c3ccc(C)cc3)C/C(=C\c3ccc(C)cc3)C2=O)cc1 [3d, 3,5-Bis(4-methylbenzylidene)-1-tosylpiperidin-4-one]	187
Cc1ccc(S(=O)(=O)N2C/C(=C\c3ccc(Cl)cc3)C(=O)/C(=C/c3ccc(Cl)cc3)C2)cc1 [3e, 3,5-Bis(4-chlorobenzylidene)-1-tosylpiperidin-4-one]	209
COc1ccc(/C=C2\CN(S(=O)(=O)c3ccc(C)cc3)C/C(=C\c3ccc(OC)cc3)C2=O)cc1 [3f, 3,5-Bis(4-methoxybenzylidene)-1-tosylpiperidin-4-one]	183
Cc1ccc(S(=O)(=O)N2C/C(=C\c3ccc(C(C)(C)C)cc3)C(=O)/C(=C/c3ccc(C(C)(C)C)cc3)C2)cc1 [3g, 3,5-Bis(4-tert-butylbenzylidene)-1-tosylpiperidin-4-one]	220
CCCCc1ccc(/C=C2\CN(S(=O)(=O)c3ccc(C)cc3)C/C(=C\c3ccc(CCCC)cc3)C2=O)cc1 [3h, 3,5-Bis(4-butylbenzylidene)-1-tosylpiperidin-4-one]	148
Cc1ccc(S(=O)(=O)N2C/C(=C\c3ccc(C(C)C)cc3)C(=O)/C(=C/c3ccc(C(C)C)cc3)C2)cc1 [3i, 3,5-Bis(4-isopropylbenzylidene)-1-tosylpiperidin-4-one]	177
Cc1ccc(/C=C2\CN(S(=O)(=O)c3ccccc3)C/C(=C\c3ccc(C)cc3)C2=O)cc1 [4a, 3,5-Bis(4-methylbenzylidene)-1-(phenylsulfonyl)piperidin-4-one]	211
CCc1ccc(/C=C2\CN(S(=O)(=O)c3ccccc3)C/C(=C\c3ccc(CC)cc3)C2=O)cc1 [4b, 3,5-Bis(4-ethylbenzylidene)-1-(phenylsulfonyl)piperidin-4-one]	165
CC(C)c1ccc(/C=C2\CN(S(=O)(=O)c3ccccc3)C/C(=C\c3ccc(C(C)C)cc3)C2=O)cc1 [4c, 3,5-Bis(4-isopropylbenzylidene)-1-(phenylsulfonyl)piperidin-4-one]	170
CCCc1ccc(/C=C2\CN(S(=O)(=O)c3ccccc3)C/C(=C\c3ccc(CCC)cc3)C2=O)cc1 [4d, 1-(Phenylsulfonyl)-3,5-bis(4-propylbenzylidene)piperidin-4-one]	153
CC(C)(C)c1ccc(/C=C2\CN(S(=O)(=O)c3ccccc3)C/C(=C\c3ccc(C(C)(C)C)cc3)C2=O)cc1 [4f, 3,5-Bis(4-tert-butylbenzylidene)-1-(phenylsulfonyl)piperidin-4-one]	194
CCCCc1ccc(/C=C2\CN(S(=O)(=O)c3ccccc3)C/C(=C\c3ccc(CCCC)cc3)C2=O)cc1 [4g, 3,5-Bis(4-butylbenzylidene)-1-(phenylsulfonyl)piperidin-4-one]	134
COc1ccc(/C=C2\CN(S(=O)(=O)c3ccccc3)C/C(=C\c3ccc(OC)cc3)C2=O)cc1 [4h, 3,5-Bis(4-methoxybenzylidene)-1-(phenylsulfonyl)piperidin-4-one]	217
O=C1/C(=C/c2ccc(F)cc2)CN(S(=O)(=O)c2ccccc2)C/C1=C\c1ccc(F)cc1 [4j, 3,5-Bis(4-fluorobenzylidene)-1-(phenylsulfonyl)piperidin-4-one]	181
Cc1ccc(/C=C2\CN(Cc3ccccc3)C/C(=C\c3ccc(C)cc3)C2=O)cc1 [5a, 1-Benzyl-3,5-bis(4-methylbenzylidene)piperidin-4-one]	170
CCc1ccc(/C=C2\CN(Cc3ccccc3)C/C(=C\c3ccc(CC)cc3)C2=O)cc1 [5c, 1-Benzyl-3,5-bis-(4-ethyl-benzylidene)-piperidin-4-one]	119
CC(C)c1ccc(/C=C2\CN(Cc3ccccc3)C/C(=C\c3ccc(C(C)C)cc3)C2=O)cc1 [5e, 1-Benzyl-3,5-bis(4-isopropylbenzylidene)piperidin-4-one]	157
CCCCc1ccc(/C=C2\CN(Cc3ccccc3)C/C(=C\c3ccc(CCCC)cc3)C2=O)cc1 [5f, 1-Benzyl-3,5-bis(4-butylbenzylidene)piperidin-4-one]	104
CC(C)(C)c1ccc(/C=C2\CN(Cc3ccccc3)C/C(=C\c3ccc(C(C)(C)C)cc3)C2=O)cc1 [5g, 1-Benzyl-3,5-bis(4-tert-butylbenzylidene)piperidin-4-one]	167
O=C1/C(=C/c2ccc(F)cc2)CN(Cc2ccccc2)C/C1=C\c1ccc(F)cc1 [5j, 1-Benzyl-3,5-bis(4-fluorobenzylidene)piperidin-4-one]	159
